In PubChem BioAssay (NCI):
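All cell lines were grown in 96-well plates and treated with compound for 48 hours. GI50: concentration for 50% inhibition of growth. TGI marks complete inhibition of growth.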

Legend:
Assay in all cases: DTP human tumour cell line panel, 48 h
SK-MEL-28 melanoma = test system: SK-MEL-28 melanoma
ACHN renal = test system: ACHN renal
NCI/ADR-RES ovarian = test system: NCI/ADR-RES ovarian
MDA-MB-435 = test system: MDA-MB-435
SF-539 CNS = test system: SF-539 CNS
SF-268 CNS = test system: SF-268 CNS
PC-3 prostate = test system: PC-3 prostate
OVCAR-8 ovarian = test system: OVCAR-8 ovarian
MALME-3M melanoma = test system: MALME-3M melanoma
DU-145 prostate = test system: DU-145 prostate
OVCAR-3 ovarian = test system: OVCAR-3 ovarian
NCI-H23 lung = test system: NCI-H23 lung
OVCAR-4 ovarian = test system: OVCAR-4 ovarian
M14 melanoma = test system: M14 melanoma
SR leukemia = test system: SR leukemia
HL-60(TB) leukemia = test system: HL-60(TB) leukemia
TK-10 renal = test system: TK-10 renal
CAKI-1 renal = test system: CAKI-1 renal
U251 CNS = test system: U251 CNS
SN12C renal = test system: SN12C renal
HT29 colon = test system: HT29 colon
OVCAR-5 ovarian = test system: OVCAR-5 ovarian
SK-MEL-2 melanoma = test system: SK-MEL-2 melanoma
A498 renal = test system: A498 renal
MCF7 breast = test system: MCF7 breast
MDA-MB-231 breast = test system: MDA-MB-231 breast
786-0 renal = test system: 786-0 renal
SF-295 CNS = test system: SF-295 CNS
A549 NSCLC = test system: A549 NSCLC
BT-549 breast = test system: BT-549 breast
NCI-H522 lung = test system: NCI-H522 lung
NCI-H226 lung = test system: NCI-H226 lung
NCI-H460 lung = test system: NCI-H460 lung
UACC-257 melanoma = test system: UACC-257 melanoma
HCT-116 colon = test system: HCT-116 colon
KM12 colon = test system: KM12 colon
HOP-62 NSCLC = test system: HOP-62 NSCLC
K-562 leukemia = test system: K-562 leukemia
HCT-15 colon = test system: HCT-15 colon
LOX IMVI melanoma = test system: LOX IMVI melanoma
HS 578T breast = test system: HS 578T breast
HCC-2998 colon = test system: HCC-2998 colon
SK-OV-3 ovarian = test system: SK-OV-3 ovarian
MOLT-4 leukemia = test system: MOLT-4 leukemia
SK-MEL-5 melanoma = test system: SK-MEL-5 melanoma
COLO 205 colon = test system: COLO 205 colon
CCRF-CEM leukemia = test system: CCRF-CEM leukemia
IGROV1 ovarian = test system: IGROV1 ovarian
SNB-75 CNS = test system: SNB-75 CNS
SW-620 colon = test system: SW-620 colon
UO-31 renal = test system: UO-31 renal
SNB-19 CNS = test system: SNB-19 CNS
RPMI-8226 leukemia = test system: RPMI-8226 leukemia
RXF 393 renal = test system: RXF 393 renal
EKVX NSCLC = test system: EKVX NSCLC
T-47D breast = test system: T-47D breast
HOP-92 NSCLC = test system: HOP-92 NSCLC
UACC-62 melanoma = test system: UACC-62 melanoma

## COc1ccc(C2C(C#N)=C(N)OC3=C2CCCc2ccc(F)cc23)cc1OC (stereo not given)
SK-MEL-28 melanoma
  GI50: 24.5 µM
  TGI: > 62.4 µM
ACHN renal
  GI50: 19.9 µM
  TGI: 41.7 µM
NCI/ADR-RES ovarian
  GI50: 16.6 µM
  TGI: 43.9 µM
MDA-MB-435
  GI50: 12.9 µM
  TGI: > 53.3 µM
SF-539 CNS
  GI50: 16.6 µM
  TGI: 32.2 µM
SF-268 CNS
  GI50: 20.1 µM
  TGI: 48.5 µM
PC-3 prostate
  GI50: 19.5 µM
  TGI: 38.8 µM
OVCAR-8 ovarian
  GI50: 21.4 µM
  TGI: 53.5 µM
MALME-3M melanoma
  GI50: 18.5 µM
  TGI: 40 µM
DU-145 prostate
  GI50: 19.1 µM
  TGI: 36.9 µM
OVCAR-3 ovarian
  GI50: 19.3 µM
  TGI: 46.2 µM
NCI-H23 lung
  GI50: 22.8 µM
  TGI: > 65.9 µM
OVCAR-4 ovarian
  GI50: 23 µM
  TGI: 68 µM
M14 melanoma
  GI50: 19.9 µM
  TGI: 41.8 µM
SR leukemia
  GI50: > 100 µM
  TGI: > 100 µM
HL-60(TB) leukemia
  GI50: 32 µM
  TGI: > 100 µM
TK-10 renal
  GI50: 28.8 µM
  TGI: 56.3 µM
CAKI-1 renal
  GI50: 34.2 µM
  TGI: 65.3 µM
U251 CNS
  GI50: 17 µM
  TGI: 35.9 µM
SN12C renal
  GI50: 19.7 µM
  TGI: 39.5 µM
HT29 colon
  GI50: 29.6 µM
  TGI: > 72.4 µM
OVCAR-5 ovarian
  GI50: 24.7 µM
  TGI: 65.2 µM
SK-MEL-2 melanoma
  GI50: 21.2 µM
  TGI: 57.9 µM
A498 renal
  GI50: 4.22 µM
  TGI: 21.9 µM
MCF7 breast
  GI50: 28.1 µM
  TGI: > 77.7 µM
MDA-MB-231 breast
  GI50: 17.3 µM
  TGI: 45.5 µM
786-0 renal
  GI50: 14.7 µM
  TGI: 29.8 µM
SF-295 CNS
  GI50: 33.2 µM
  TGI: > 57.3 µM
A549 NSCLC
  GI50: 25.8 µM
  TGI: > 69.6 µM
BT-549 breast
  GI50: 19.4 µM
  TGI: 42.5 µM
NCI-H522 lung
  GI50: 17.8 µM
  TGI: 37.6 µM
NCI-H226 lung
  GI50: 19.6 µM
  TGI: 43.9 µM
NCI-H460 lung
  GI50: 20.9 µM
  TGI: 54.4 µM
UACC-257 melanoma
  GI50: 29.6 µM
  TGI: > 67.8 µM
HCT-116 colon
  GI50: 11 µM
  TGI: 39.1 µM
KM12 colon
  GI50: 19.1 µM
  TGI: 43.6 µM
HOP-62 NSCLC
  GI50: 21.5 µM
  TGI: 42.3 µM
K-562 leukemia
  GI50: 26.6 µM
  TGI: > 100 µM
HCT-15 colon
  GI50: 17.8 µM
  TGI: 38 µM
LOX IMVI melanoma
  GI50: 21.9 µM
  TGI: 44.8 µM
HS 578T breast
  GI50: 22 µM
  TGI: 51.5 µM
HCC-2998 colon
  GI50: 15.6 µM
  TGI: 31.6 µM
SK-OV-3 ovarian
  GI50: 25.4 µM
  TGI: 57.7 µM
MOLT-4 leukemia
  GI50: > 38.2 µM
  TGI: > 66.9 µM
SK-MEL-5 melanoma
  GI50: 14.7 µM
  TGI: 27.9 µM
COLO 205 colon
  GI50: 38.5 µM
  TGI: > 95.8 µM
CCRF-CEM leukemia
  TGI: 0.0686 µM
IGROV1 ovarian
  GI50: 18.3 µM
  TGI: 46.3 µM
SNB-75 CNS
  GI50: 34.7 µM
  TGI: > 84.6 µM
SW-620 colon
  GI50: 12.5 µM
  TGI: 30.3 µM
UO-31 renal
  GI50: 16.5 µM
  TGI: 31.8 µM
SNB-19 CNS
  GI50: 30.2 µM
  TGI: > 82.4 µM
RPMI-8226 leukemia
  GI50: 7.46 µM
  TGI: 22.8 µM
RXF 393 renal
  GI50: 18.7 µM
  TGI: 45.7 µM
EKVX NSCLC
  GI50: 10.1 µM
  TGI: 37.5 µM
T-47D breast
  GI50: 46.1 µM
  TGI: 98.3 µM
HOP-92 NSCLC
  GI50: 17.1 µM
  TGI: 42.4 µM
UACC-62 melanoma
  GI50: 21.6 µM
  TGI: 47 µM

## CNC(=O)c1cn(C[C@H](F)CCc2ccc(NC(=O)Cc3cc(OC4CC(F)(F)C4)cc(C)n3)nn2)nn1
SK-MEL-28 melanoma
  GI50: > 100 µM
  TGI: > 100 µM
ACHN renal
  GI50: > 100 µM
  TGI: > 100 µM
NCI/ADR-RES ovarian
  GI50: > 100 µM
  TGI: > 100 µM
MDA-MB-435
  GI50: > 100 µM
  TGI: > 100 µM
SF-539 CNS
  GI50: > 100 µM
  TGI: > 100 µM
SF-268 CNS
  GI50: > 100 µM
  TGI: > 100 µM
PC-3 prostate
  GI50: > 100 µM
  TGI: > 100 µM
OVCAR-8 ovarian
  GI50: > 100 µM
  TGI: > 100 µM
MALME-3M melanoma
  GI50: > 100 µM
  TGI: > 100 µM
DU-145 prostate
  GI50: > 100 µM
  TGI: > 100 µM
NCI-H23 lung
  GI50: > 100 µM
  TGI: > 100 µM
OVCAR-4 ovarian
  GI50: > 100 µM
  TGI: > 100 µM
M14 melanoma
  GI50: > 100 µM
  TGI: > 100 µM
SR leukemia
  GI50: > 81.8 µM
  TGI: > 100 µM
HL-60(TB) leukemia
  GI50: > 100 µM
  TGI: > 100 µM
TK-10 renal
  GI50: > 100 µM
  TGI: > 100 µM
U251 CNS
  GI50: 0.102 µM
  TGI: > 100 µM
SN12C renal
  TGI: > 100 µM
HT29 colon
  GI50: > 100 µM
  TGI: > 100 µM
OVCAR-5 ovarian
  GI50: > 100 µM
  TGI: > 100 µM
SK-MEL-2 melanoma
  GI50: > 100 µM
  TGI: > 100 µM
A498 renal
  GI50: 0.0854 µM
  TGI: 1.27 µM
MCF7 breast
  GI50: > 100 µM
  TGI: > 100 µM
MDA-MB-231 breast
  GI50: > 100 µM
  TGI: > 100 µM
786-0 renal
  GI50: > 100 µM
  TGI: > 100 µM
SF-295 CNS
  GI50: > 100 µM
  TGI: > 100 µM
A549 NSCLC
  GI50: 0.0594 µM
  TGI: > 100 µM
BT-549 breast
  GI50: > 100 µM
  TGI: > 100 µM
NCI-H522 lung
  GI50: 5.18 µM
  TGI: > 100 µM
NCI-H226 lung
  TGI: > 100 µM
NCI-H460 lung
  GI50: > 100 µM
  TGI: > 100 µM
UACC-257 melanoma
  GI50: > 100 µM
  TGI: > 100 µM
HCT-116 colon
  GI50: > 100 µM
  TGI: > 100 µM
KM12 colon
  GI50: > 100 µM
  TGI: > 100 µM
HOP-62 NSCLC
  GI50: > 100 µM
  TGI: > 100 µM
K-562 leukemia
  GI50: > 100 µM
  TGI: > 100 µM
HCT-15 colon
  GI50: > 100 µM
  TGI: > 100 µM
LOX IMVI melanoma
  GI50: > 100 µM
  TGI: > 100 µM
HS 578T breast
  GI50: 5.37 µM
  TGI: > 100 µM
HCC-2998 colon
  GI50: > 100 µM
  TGI: > 100 µM
SK-OV-3 ovarian
  GI50: > 100 µM
  TGI: > 100 µM
MOLT-4 leukemia
  GI50: > 93.5 µM
  TGI: > 100 µM
SK-MEL-5 melanoma
  GI50: > 100 µM
  TGI: > 100 µM
COLO 205 colon
  GI50: > 100 µM
  TGI: > 100 µM
CCRF-CEM leukemia
  GI50: > 45.8 µM
  TGI: > 100 µM
IGROV1 ovarian
  GI50: > 100 µM
  TGI: > 100 µM
SNB-75 CNS
  GI50: > 100 µM
  TGI: > 100 µM
SW-620 colon
  GI50: > 100 µM
  TGI: > 100 µM
UO-31 renal
  GI50: > 100 µM
  TGI: > 100 µM
SNB-19 CNS
  GI50: > 100 µM
  TGI: > 100 µM
RPMI-8226 leukemia
  GI50: 5.65 µM
  TGI: > 100 µM
RXF 393 renal
  GI50: > 31.5 µM
  TGI: > 100 µM
EKVX NSCLC
  GI50: > 100 µM
  TGI: > 100 µM
T-47D breast
  GI50: > 100 µM
  TGI: > 100 µM
HOP-92 NSCLC
  GI50: 23 µM
  TGI: > 100 µM
UACC-62 melanoma
  GI50: > 100 µM
  TGI: > 100 µM
